Tested on: SARS-CoV-2 pseudovirus variants
Type: cell-based

SMILES	inhibition of D614G pseudovirus infection, single agent vs positive control	inhibition of Beta and Delta variant pseudovirus infection	inhibition of D614G pseudovirus infection	inhibition of D614G, Delta and Omicron pseudovirus infection	inhibition of Omicron and Delta pseudovirus infection compared with other variants	inhibition of infection by D614, D614G, N501Y, E484K, N+E, NEK, R685A pseudovirus variants
CNS(=O)(=O)Nc1nccc(Cc2c(C)c3ccc(Oc4ncccn4)cc3oc2=O)c1F [VS-6766]	inhibited pseudovirus infection					
COc1ccc(S(=O)(=O)N[C@@H](CNc2nc(C)nc(N3CCC(c4ccc5c(n4)NCCC5)CC3)c2C)C(=O)O)cc1 [GLPG-0187]	inhibited pseudovirus infection	most significant decrease in pseudovirus infection by the Delta variant	inhibited pseudovirus infection in a dose-dependent manner	effectively blocked	more significantly than other variants	inhibition of viral infection of each variant
